Measured values reported in US20060286574A1 (priority 2005, published 2006).

Experiments:
E. coli [1] = type: cell-based; conditions: for enhancement of the activity of ciprofloxacin: at 25 μM
E. coli ΔrecB strains = type: cell-based; conditions: putative ΔrecB transductants and parental ΔrecB strain
K. pneumoniae = type: in vivo; conditions: mice; wild type vs ΔrecB K. pneumoniae; 0.064-15 mg/kg/day ciprofloxacin; 48 hour endpoint; FIG. 6
E. coli [2] = system: E. coli
P. aeruginosa = experiment: Effect of gam expression on ciprofloxacin efficacy in P. aeruginosa; type: cell-based
E. coli [3] = experiment: Effect of gam expression on ciprofloxacin efficacy in E. coli; type: cell-based

Cn1c2ccccc2n2c3ncccc3c(=O)c(C#N)c12 [Formula IIb]
enhancement of the activity of ciprofloxacin (E. coli [1]): enhanced the activity of ciprofloxacin

Cn1c2ccccc2n2c3cnccc3c(=O)c(C#N)c12 [Formula IIc]
enhancement of the activity of ciprofloxacin (E. coli [1]): enhanced the activity of ciprofloxacin

Nc1ccc2noc3c2c1C(=O)c1ccccc1-3 [Formula Ia]
MIC shift in ciprofloxacin responsiveness (E. coli [1]): 10 ×

CO[C@@]12[C@H](COC(N)=O)C3=C(C(=O)C(C)=C(N)C3=O)N1C[C@@H]1N[C@@H]12 [Mitomycin C]
Mitomycin C MIC of ΔrecB strains, lower compared to recB+ strains (E. coli ΔrecB strains): about 8 fold

O=C(O)c1cn(C2CC2)c2cc(N3CCNCC3)c(F)cc2c1=O [ciprofloxacin]
reduction in CFU in thigh (log CFU/gm of thigh) (K. pneumoniae): significantly greater reduction in CFU for the recB mutants relative to the wild type strain | cells killed (E. coli [2]): 99%

B1: lambda gam: protein used by λ phage to inhibit E. coli RecB; overexpressed from an arabinose-inducible vector (protein, UniProt P03702 1-138, looked up)
Host-nuclease inhibitor …: MDINTETEIKQKHSLTPFPVFLISPAFRGRYFHSYFRSSAMNAYYIQDRLEAQSWARHYQQLAREEKEAELADDMEKGLPQHLFESLCIDHLQRHGASKKSITRAFDDDVEFQERMAEHIRYMVETIAHHQVDIDSEV
effect of lambda gam overexpression on ciprofloxacin sensitivity (P. aeruginosa; strain lacking the RecB target (RTC1019) relative to empty vector strain (RTC1016)): no effect | decrease in the ciprofloxacin MIC on overexpression of lambda gam (P. aeruginosa; wild-type P. aeruginosa (RTC1017) and gyrA(S831) mutant (RTC1018) relative to empty vector controls (RTC1014, RTC1015)): 2-4 fold | effect of lambda gam overexpression on ciprofloxacin sensitivity (E. coli [3]; strain lacking the RecB target (RTC0148) relative to empty vector strain (RTC0147)): no effect | decrease in the ciprofloxacin IC50 on overexpression of lambda gam (E. coli [3]; wild-type E. coli (RTC0142) and gyrA(S83L) (RTC0144) relative to empty vector controls (RTC0141, RTC0143)): 5-8 fold
